Earlier results on one compound are cited in paper PMC8510358, “Common Shortcomings in Study on Radiopharmaceutical Design Research: A Case Study of ^99mTc-Labelled Methotrexate” (Molecules, 2021).

This data set has as its system folate receptors. Set-up: method as in PMID 23851396. The note with it: in comparison to folic acid (FA); ref [3].

As for `CN(Cc1cnc2nc(N)nc(N)c2n1)c1ccc(C(=O)N[C@@H](CCC(=O)O)C(=O)O)cc1` [MTX, Methotrexate], the “affinity to folate receptors” value is on record as “noticeably lower”.
